“Also recorded” adds a separate entry of the source. Read-outs that look alike come from different tables or passages of the source.
What was measured:
[1] = system: rhesus monkeys trained to self-administer cocaine; experiment: Cocaine self-administration, Rapid Assessment (Rapid Dose Effect) Procedure, cocaine dose-effect curve; assay type: in vivo, rhesus monkeys (Macaca mulatta)
Experimental: (§1) The test compound (O-carbamoyl-(D)-phenylalaminol) was tested for the effects on cocaine self-administration in rhesus monkeys. Rhesus monkeys were trained to self-administer cocaine (0.032 mg/kg/inj, i.v.) and 1 g banana-flavored food pellets during 2-hr experimental sessions in the Rapid Assessment Procedure. Each session consisted of four 20-min components of drug availability (100-min), each separated by a 5-min timeout period. The four components of drug availability were preceded and followed by […] components of food availability. During training, unit doses of cocaine were varied across components of the session (0.001-0.03 or 0.01-0.32 mg/kg/inj) to provide full dose effect curves for cocaine self-administration. The position and slope of the dose-effect curve varied among monkeys and, generally, was represented by an inverted-U shape function characteristic for cocaine self-administration under fixed-ratio schedules. In some sessions, the unit dose of cocaine at the peak of the dose-effect curve for i.v. self-administration (0.0032 or 0.032 mg/kg/inj) was kept constant across components of the session. After baseline cocaine dose-effect curves and the effects of peak dose availability throughout the session were stable, experiments with test compound were begun.
Next, the Rapid Assessment Procedure was used to evaluate the effects of a single i.m. dose of test compound on self-administration of a range of unit doses of cocaine within a single experimental session. […] During rapid assessment studies, food-maintained behavior was disrupted in two monkeys and unaffected in the remaining two monkeys, resulting in a >50% decrease in averaged response rates prior to or following sessions of cocaine self-administration.
(§2) Subjects. Five male rhesus monkeys (Macaca mulatta), 89B013, 96D155, 97D105, RQ22 15, and 93N082, were trained to respond for the delivery of 1-g banana pellets under a program of gradually increasing values of a fixed-ratio (FR) schedule until performance was maintained under the terminal FR 30 response schedule. Then, a double-lumen intravenous catheter was surgically implanted under aseptic-conditions in each monkey. Subsequently, monkeys were trained to respond for cocaine (see below). All monkeys were maintained under identical housing conditions as specified under contract DA-7-8073. Individual monkeys had visual, auditory, and olfactory contact with other monkeys, and several types of enrichment devices were provided in the home chamber.
(§3) Apparatus. All experimental equipment was identical to that used in our previously described drug self-administration studies. Briefly, each monkey was housed individually in a well-ventilated stainless steel chamber (64×64×79 cm). The home cages of all monkeys were modified to include an operant panel (28×28 cm) mounted on the front wall and fitted with response keys that could be trans-illuminated by red or green stimulus lights (LEDs). The operant panel also supported an externally-mounted pellet dispenser (Gerbrands, Model G5210) that delivered 1 gm fruit-flavored food pellets (P. J. Noyes Co., Lancaster, N.H.) to a food receptacle mounted on the cage beneath the operant response panel. Two syringe pumps (Model B5P-IE, Braintree Scientific, Braintree, Mass.; or Model 980210, Harvard Apparatus, South Natick, Mass.) were mounted above each cage for delivery of saline or drug solutions through the double-lumen intravenous catheters. Operation of the operant panels and data collection were accomplished with an LBM-compatible computer supplied by Med Associates, Inc., and located in an adjacent room. The experimental control hardware was supplied by Med Associates, Inc., and was controlled by customized-software written in MedState Notation.
(§4) Test sessions. A diagram of the Rapid Assessment Procedure is shown in the drawing. Test sessions occurred twice daily beginning at 11 a.m. and 3 p.m. […]

[2] = system: rats trained to discriminate cocaine (10 mg/kg) from saline; experiment: Substitution for the discriminative stimulus effects of cocaine in rats (two-lever drug discrimination); assay type: in vivo, Sprague-Dawley rats; settings: for ED50: Rattus norvegicus, linear regression against log10 doses from 10 to 100 mg/kg
Experimental: Test compound was tested for its ability to substitute for the discriminative stimulus effects of cocaine (10 mg/kg) in rats.
Six male Sprague-Dawley rats were trained to discriminate cocaine (10 mg/kg) from saline using a two-lever choice methodology. Food was available as a reinforcer under a fixed ratio 10 schedule when responding occurred on the injection appropriate lever. All tests occurred in standard, commercially available chambers (Coulbourn Instruments), using 45 mg food pellets (Bioserve) as reinforcers.
Training sessions occurred in a double alternating fashion, and tests were conducted between pairs of identical training sessions (i.e., between either two saline or two cocaine training sessions). Tests occurred only if, in the two preceding training sessions, subjects met the criteria of emitting 85% of responses on the injection correct lever for both the first reinforcer (first fixed ratio) and the total session. Test sessions lasted for twenty minutes, or until twenty reinforcers had been obtained. Doses of the test compound for which fewer, than three rats completed the first fixed ratio were not considered in the characterization of discriminative stimulus effects.
Intraperitoneal injections (1 ml/kg) of test compound, or its vehicle (0.9% saline), occurred 60 minutes prior to the start of the test session. A starting dose for test compound of 2.5 mg/kg was determined based upon data supplied by the project officer, and a dose range of 2.5 to 100 mg/kg was examined.

[3] = system: rhesus monkeys trained to self-administer cocaine; experiment: Cocaine self-administration, dose-ranging studies with peak unit dose of i.v. cocaine and food components; assay type: in vivo, rhesus monkeys (Macaca mulatta)
Experimental: as §1
Two types of cocaine self-administration experiments were conducted to evaluate pretreatment with test compound: (1) test compound dose-ranging studies and (2) effects of a single dose of test compound on cocaine dose-effect curves. In initial dose-ranging experiments, test compound was studied in individual monkeys by administering i.m. doses of 10-32 mg/kg 30-min before the session.
as §2, §3, §4

[4] = 32 mg/kg i.m. pretreatment, averaged for the group
[5] = 32 mg/kg i.m., monkeys 96D155, 93N082 and 97D105

## NC(=O)OC[C@H](N)Cc1ccccc1 [test compound, O-carbamoyl-(D)-phenylalaminol]
[1]; 32 mg/kg i.m.
  Displacement of the descending portion of the cocaine dose-effect curve: leftward and upward displacement
[1]; [4]
  Effect on responding during availability of saline or low unit doses of i.v. cocaine (0.001-0.01 mg/kg): either increased or did not change response rates; also recorded: increased responding
  Effect on self-administration of higher unit doses of i.v. cocaine (0.032-0.32 mg/kg): decreased cocaine self-administration behavior
[1]; 32 mg/kg i.m., averaged for the group, rapid assessment
  Decrease in food-maintained responding (averaged response rates), Food 1 and Food 2: > 50%
[1]; 32 mg/kg i.m., monkey RQ2215
  Decrease in food-maintained responding, Food 1: 40%
  Responding during availability of saline or unit doses of i.v. cocaine 0.001-0.032 mg/kg/injection: inconsistently increased
  Responding during availability of unit doses of 0.1 and 0.32 mg/kg cocaine: unchanged
[1]; 32 mg/kg i.m., monkeys 93N082 and 97D105
  Food-maintained responding, Food 1: nearly eliminated
[1]; [5]
  Effect on i.v. self-administration during availability of higher unit doses of cocaine: reduced i.v. self-administration behavior
  Effect on responding during availability of saline or low unit doses of cocaine (0.001-0.01 mg/kg): increased responding
  Food-maintained responding, Food 2: nearly eliminated
[2]; i.p. 60 min before session, read-out: ED50, substitution for the discriminative stimulus effects of 10 mg/kg cocaine, total session
  ED50: 37.4 mg/kg
[2]; ip, read-out: ED50, substitution for cocaine, first reinforcer
  ED50: 37.5 mg/kg
[2]; dose range 2.5 to 100 mg/kg i.p.
  Substitution for the discriminative stimulus effects of 10 mg/kg cocaine: substituted fully; also recorded: fully substituted
[2]; following 100 mg/kg i.p.
  Response rate, % of vehicle control, first reinforcer: 37%
  Response rate, % of vehicle control, total session: 41%
[3]; 10 mg/kg i.m., any of the four monkeys
  Effect on i.v. cocaine self-administration behavior: did not alter
[3]; 10 mg/kg i.m., averaged for the group
  Effect on self-administration of the peak unit dose of i.v. cocaine: did not have consistent effects; also recorded: without appreciable effect
[3]; 10 mg/kg i.m., monkeys 89B013 and RQ2215
  Food-maintained performance, Food 1 and Food 2: unchanged
[3]; 10 mg/kg i.m., monkeys 96D155 and 93N082
  Food-maintained responding, Food 2: decreased food-maintained responding
[3]; 18 mg/kg i.m., any monkey
  Food-maintained behavior, Food 1: not appreciably affected
[3]; 18 mg/kg i.m., monkey 89B013
  Decrease in self-administration of the peak unit dose of i.v. cocaine: approximately 50%
[3]; 18 mg/kg i.m., monkeys 89B013 and 93N082
  Food-maintained behavior, Food 2: greatly decreased
[3]; 18 mg/kg i.m., monkeys 96D155 and RQ2215
  Food-maintained behavior, Food 2: did not change behavior
[3]; 18 mg/kg i.m., remaining three subjects
  Effect on i.v. self-administration behavior: did not appreciably alter
[3]; 32 mg/kg i.m. 30 min before session, averaged for the group of monkeys
  Decrease in self-administration of the peak unit dose of i.v. cocaine: approximately 50%
[3]; 32 mg/kg i.m. (18 or 32 mg/kg), prior to or following cocaine components
  Effect on food-maintained behavior: without consistently disrupting food-maintained behavior; also recorded: did not consistently alter
[3]; 32 mg/kg i.m., averaged for the group
  Effect on self-administration of the peak unit dose of i.v. cocaine: markedly decreased
[3]; 32 mg/kg i.m., each of the three monkeys studied
  Reduction of self-administration of the peak unit dose of i.v. cocaine: ≥ 50%
[3]; 32 mg/kg i.m., monkey 93N082
  Food-maintained performance, Food 1 and Food 2: markedly decreased
[3]; 32 mg/kg i.m., monkeys 96D155 and RQ2215
  Food-maintained responding, either food component: did not alter responding
[3]; pretreatment doses 10-32 mg/kg i.m., averaged for the group, dose-ranging studies
  Effect on food-maintained behavior: only inconsistent effects
